Laboratory results taken from patent US11807693B2 (priority 2014, dated 2023).
Starred links: 1 amine or outer side, 2 acyl side, 3 side chain; linkers in the order of their positions; H or OH if unused. Non-standard residues stand in square brackets, D forms with d. Residues, ends and D or L forms follow the SMILES beside them. *: point of attachment. Oic = O=C(O)[C@@H]1C[C@@H]2CCCC[C@@H]2N1; Phe(4-Cl) = N[C@@H](Cc1ccc(Cl)cc1)C(=O)O; γGlu = O=C(O)[C@H](CCC(=O)[*:2])N[*:1]; d(β3hF) = N[C@@H](CC(=O)O)Cc1ccccc1; NMeR = CN[C@@H](CCCNC(=N)N)C(=O)O; Palmitoyl = CCCCCCCCCCCCCCCC(=O)*; Tridecanoyl = CCCCCCCCCCCCC(=O)*; X1 = O=C(CN(C1CCNCC1)[*:1])[*:2]; hArg = N=C(N)NCCCC[C@H](N)C(=O)O; 3Pal = N[C@@H](Cc1cccnc1)C(=O)O; Cha = N[C@@H](CC1CCCCC1)C(=O)O; β3hP = O=C(O)C[C@@H]1CCCN1; Pip = O=C(O)[C@@H]1CCCCN1; Nle = CCCC[C@H](N)C(=O)O; Pra = C#CC[C@H](N)C(=O)O; Deg = CCC(N)(CC)C(=O)O; AEEA = NCCOCCOCC(=O)O; Aib = CC(C)(N)C(=O)O

target: T1, rat APJ receptor (Rattus norvegicus, UniProt Q9JHG3); experiment: [35S] GTPγS assay, rat APJ receptor; type: biochemical; conditions: Table 16, read-out: EC50 Rat APJ Receptor
T1 construct: expressed in transfected cells
T1 sequence (Q9JHG3 1-377): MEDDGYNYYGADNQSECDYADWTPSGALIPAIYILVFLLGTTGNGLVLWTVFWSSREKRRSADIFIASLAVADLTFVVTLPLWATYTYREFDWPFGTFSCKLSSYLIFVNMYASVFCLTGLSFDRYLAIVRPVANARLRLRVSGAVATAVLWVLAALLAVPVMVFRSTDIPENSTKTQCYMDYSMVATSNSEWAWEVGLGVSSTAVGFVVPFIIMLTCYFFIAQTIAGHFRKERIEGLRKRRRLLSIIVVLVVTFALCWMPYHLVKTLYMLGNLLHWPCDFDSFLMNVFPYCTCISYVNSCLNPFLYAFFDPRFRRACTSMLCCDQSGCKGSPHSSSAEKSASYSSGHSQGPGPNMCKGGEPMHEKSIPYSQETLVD
Protocol: The membranes were incubated with modified peptides in the assay buffer. […] Bound [^35S] GTPγS was separated from free radiolabel by filtration. The filter bound radioactivity was determined by liquid scintillation counting.

| Compound | EC50 |
| --- | --- |
| C#CC[C@H](NC(=O)[C@H](CC(C)C)NC(=O)[C@H](CCCNC(=N)N)N(C)C(=O)[C@@H]1CCCN1C(=O)[C@H](CCCNC(=N)N)NC(=O)[C@H](CCC(N)=O)NC(=O)COCCOCCNC(=O)COCCOCCNC(=O)CC[C@H](NC(=O)CCCCCCCCCCCC)C(=O)O)C(=O)N[C@@H](Cc1c[nH]cn1)C(=O)N[C@@H](CCCCN)C(=O)NCC(=O)N1CCC[C@H]1C(=O)N[C@@H](CCCC)C(=O)N1CCC[C@H]1C(=O)N[C@@H](Cc1ccc(Cl)cc1)C(=O)O [compound 450] ({Tridecanoyl-γGlu-AEEA-AEEA}-QRP[NMeR]L[Pra]HKGP[Nle]P[Phe(4-Cl)]-OH) | 0.313 nM |
| CCCCCCCCCCCCC(=O)N[C@@H](CCC(=O)NCCOCCOCC(=O)NCCOCCOCC(=O)N[C@H](CCC(N)=O)C(=O)N[C@@H](CCCCNC(=N)N)C(=O)N1CCC[C@H]1C(=O)N[C@H](CCCNC(=N)N)C(=O)N[C@@H](CC1CCCCC1)C(=O)N[C@@H](CO)C(=O)NC(CC)(CC)C(=O)N[C@@H](CCCCN)C(=O)NCC(=O)N1[C@H](C(=O)N[C@@H](CCCC)C(=O)N2CCC[C@H]2C(=O)N[C@@H](Cc2ccc(Cl)cc2)C(=O)O)C[C@@H]2CCCC[C@@H]21)C(=O)O [compound 451] ({Tridecanoyl-γGlu-AEEA-AEEA}-[dQ][hArg]P[dR][Cha]S[Deg]KG[Oic][Nle]P[Phe(4-Cl)]-OH) | 31.7 nM |
| CCCCCCCCCCCCC(=O)N[C@@H](CCC(=O)NCCOCCOCC(=O)NCCOCCOCC(=O)N[C@H](CCC(N)=O)C(=O)N[C@@H](CCCCNC(=N)N)C(=O)NC(CC)(CC)C(=O)N[C@H](CCCNC(=N)N)C(=O)N[C@@H](CC1CCCCC1)C(=O)N[C@@H](CO)C(=O)N[C@@H](Cc1c[nH]cn1)C(=O)N[C@@H](CCCCN)C(=O)NCC(=O)N1[C@H](C(=O)N[C@@H](CCCC)C(=O)N2CCC[C@H]2C(=O)N[C@@H](Cc2ccc(Cl)cc2)C(=O)O)C[C@@H]2CCCC[C@@H]21)C(=O)O [compound 455] ({Tridecanoyl-γGlu-AEEA-AEEA}-[dQ][hArg][Deg][dR][Cha]SHKG[Oic][Nle]P[Phe(4-Cl)]-OH) | 10.3 nM |
| CCCCCCCCCCCCC(=O)N[C@@H](CCC(=O)NCCOCCOCC(=O)NCCOCCOCC(=O)N[C@@H](CCC(N)=O)C(=O)N[C@@H](CCCNC(=N)N)C(=O)N1CCC[C@H]1C(=O)N(C)[C@@H](CCCNC(=N)N)C(=O)N(C)[C@@H](CC(C)C)C(=O)N[C@@H](CO)C(=O)N[C@@H](Cc1c[nH]cn1)C(=O)N[C@@H](CCCCN)C(=O)NCC(=O)N1CCC[C@H]1C(=O)N[C@@H](CCCC)C(=O)N1CCC[C@H]1C(=O)N[C@@H](Cc1ccc(Cl)cc1)C(=O)O)C(=O)O [compound 459] | 0.23 nM |
| CCCCCCCCCCCCC(=O)N[C@@H](CCC(=O)NCCOCCOCC(=O)NCCOCCOCC(=O)N[C@@H](CCC(N)=O)C(=O)N[C@@H](CCCCNC(=N)N)C(=O)N1CCC[C@H]1C(=O)N(C)[C@@H](CCCNC(=N)N)C(=O)N[C@@](C)(CC(C)C)C(=O)N[C@@H](CO)C(=O)N[C@@H](Cc1c[nH]cn1)C(=O)N[C@@H](CCCCN)C(=O)NCC(=O)N1CCC[C@H]1C(=O)N[C@@H](CCCC)C(=O)N1CCC[C@H]1C(=O)N[C@@H](Cc1ccc(Cl)cc1)C(=O)O)C(=O)O [compound 460] | 0.0627 nM |
| CCCCCCCCCCCCC(=O)N[C@@H](CCC(=O)NCCOCCOCC(=O)NCCOCCOCC(=O)N[C@@H](CCC(N)=O)C(=O)N[C@@H](CCCNC(=N)N)C(=O)N1CCC[C@H]1C(=O)N[C@@H](CCC(N)=O)C(=O)N[C@@H](CC(C)C)C(=O)N[C@@H](CO)C(=O)N[C@@H](Cc1c[nH]cn1)C(=O)N[C@@H](CCCCN)C(=O)NCC(=O)N1CCC[C@H]1C(=O)N[C@@H](CCCC)C(=O)N1CCC[C@H]1C(=O)N[C@@H](Cc1ccc(Cl)cc1)C(=O)O)C(=O)O [compound 465] ({Tridecanoyl-γGlu-AEEA-AEEA}-QRPQLSHKGP[Nle]P[Phe(4-Cl)]-OH) | 0.175 nM |

same assay, conditions: aqueous stock, absence of DMSO, read-out: rAPJ EC50

| Compound | EC50 |
| --- | --- |
| {H2}[MerPr](10K mPEGacetamide)QRPRLSHKGPMPF{COOH} (N-terminal MerPr 10K mPEG acetamide; source: /note="N-term MerPr(10KmPEGacetamide)") [SEQ ID NO: 110, reference compound] | 390 nM |

same assay, conditions: rat APJ receptor, read-out: EC50 Rat APJ Receptor

| Compound | EC50 |
| --- | --- |
| CCCCCC(=O)N[C@@H](CCC(=O)NCCOCCOCC(=O)NCCOCCOCC(=O)N[C@@H](CCC(N)=O)C(=O)N[C@@H](CCCNC(=N)N)C(=O)N1CCC[C@H]1C(=O)N(C)[C@@H](CCCNC(=N)N)C(=O)N[C@@H](CC(C)C)C(=O)N[C@@H](CO)C(=O)N[C@@H](Cc1c[nH]cn1)C(=O)N[C@@H](CCCCN)C(=O)NCC(=O)N1CCC[C@H]1C(=O)N[C@@H](CCCC)C(=O)N1CCC[C@H]1C(=O)N[C@@H](Cc1ccc(Cl)cc1)C(=O)O)C(=O)O [compound 492] | 0.147 nM |
| CCCCCCCCCC(=O)N[C@@H](CCC(=O)NCCOCCOCC(=O)NCCOCCOCC(=O)N[C@@H](CCC(N)=O)C(=O)N[C@@H](CCCNC(=N)N)C(=O)N1CCC[C@H]1C(=O)N(C)[C@@H](CCCNC(=N)N)C(=O)N[C@@H](CC(C)C)C(=O)N[C@@H](CO)C(=O)N[C@@H](Cc1c[nH]cn1)C(=O)N[C@@H](CCCCN)C(=O)NCC(=O)N1CCC[C@H]1C(=O)N[C@@H](CCCC)C(=O)N1CCC[C@H]1C(=O)N[C@@H](Cc1ccc(Cl)cc1)C(=O)O)C(=O)O [compound 494] | 0.147 nM |
| CCCCCCCCCCCCC(=O)N[C@@H](CCC(=O)NCCOCCOCC(=O)NCCOCCOCC(=O)NC(CC)(CC)C(=O)N[C@@H](CCCCNC(=N)N)C(=O)N1CCC[C@H]1C(=O)N[C@H](CCCNC(=N)N)C(=O)N[C@@H](CC1CCCCC1)C(=O)N[C@@H](CO)C(=O)N[C@@H](Cc1c[nH]cn1)C(=O)N[C@@H](CCCCN)C(=O)NCC(=O)N1[C@H](C(=O)N[C@@H](CCCC)C(=O)N2CCC[C@H]2C(=O)N[C@@H](Cc2ccc(Cl)cc2)C(=O)O)C[C@@H]2CCCC[C@@H]21)C(=O)O [compound 558] ({Tridecanoyl-γGlu-AEEA-AEEA}-[Deg][hArg]P[dR][Cha]SHKG[Oic][Nle]P[Phe(4-Cl)]-OH) | 12.5 nM |
| CCCCCCCCCCCCCCCC(=O)N[C@@H](CCC(=O)NCCOCCOCC(=O)NCCOCCOCC(=O)N[C@H](CCC(N)=O)C(=O)N[C@@H](CCCNC(=N)N)C(=O)N1CCC[C@H]1C(=O)N(C)[C@@H](CCCNC(=N)N)C(=O)N[C@@H](CC1CCCCC1)C(=O)N[C@@H](CO)C(=O)N[C@@H](Cc1c[nH]cn1)C(=O)N[C@@H](CCCCN)C(=O)NCC(=O)N1CCCC[C@H]1C(=O)N[C@@H](CCCC)C(=O)N[C@@H](CC(=O)O)Cc1ccccc1)C(=O)O [compound 574] ({Palmitoyl-γGlu-AEEA-AEEA}-[dQ]RP[NMeR][Cha]SHKG[Pip][Nle][d(β3hF)]-OH) | 2.83 nM |
| CCCCCCCCCCCCCCCC(=O)N[C@@H](CCC(=O)NCCOCCOCC(=O)NCCOCCOCC(=O)N[C@H](CCC(N)=O)C(=O)N[C@@H](CCCNC(=N)N)C(=O)N1CCC[C@H]1C(=O)N(C)[C@@H](CCCNC(=N)N)C(=O)N[C@@H](CC1CCCCC1)C(=O)N[C@@H](CO)C(=O)N[C@@H](Cc1c[nH]cn1)C(=O)N[C@@H](Cc1cccnc1)C(=O)NCC(=O)N1[C@H](C(=O)N[C@@H](CCCC)C(=O)N2CCC[C@H]2CC(=O)N[C@@H](CC(=O)O)Cc2ccccc2)C[C@@H]2CCCC[C@@H]21)C(=O)O [compound 620] ({Palmitoyl-γGlu-AEEA-AEEA}-[dQ]RP[NMeR][Cha]SH[3Pal]G[Oic][Nle][β3hP][d(β3hF)]-OH) | 14.9 nM |
| CCCCCCCCCCCCCCCC(=O)N[C@@H](CCC(=O)NCCOCCOCC(=O)NCCOCCOCC(=O)N[C@H](CCC(N)=O)C(=O)N[C@@H](CCCNC(=N)N)C(=O)N1CCC[C@H]1C(=O)N(C)[C@@H](CCCNC(=N)N)C(=O)N[C@@H](CC1CCCCC1)C(=O)N[C@@H](CO)C(=O)N[C@@H](Cc1c[nH]cn1)C(=O)N(CC(=O)NCC(=O)N1[C@H](C(=O)N[C@@H](CCCC)C(=O)N2CCC[C@H]2CC(=O)N[C@@H](CC(=O)O)Cc2ccccc2)C[C@@H]2CCCC[C@@H]21)C1CCNCC1)C(=O)O [compound 633] ({Palmitoyl-γGlu-AEEA-AEEA}-[dQ]RP[NMeR][Cha]SH[X1]G[Oic][Nle][β3hP][d(β3hF)]-OH) | > 4170 nM |
| CCCCCCCCCCCCCCCC(=O)N[C@@H](CCC(=O)NCCOCCOCC(=O)NCCOCCOCC(=O)N[C@H](CCC(N)=O)C(=O)N(CC(=O)N1CCC[C@H]1C(=O)N(C)[C@@H](CCCNC(=N)N)C(=O)N[C@@H](CC1CCCCC1)C(=O)N[C@@H](CO)C(=O)N[C@@H](Cc1c[nH]cn1)C(=O)N[C@@H](CCCCN)C(=O)NCC(=O)N1CCCC[C@H]1C(=O)N[C@@H](CCCC)C(=O)NC(C)(C)C(=O)N[C@@H](Cc1ccc(Cl)cc1)C(=O)O)C1CCNCC1)C(=O)O [compound 646] ({Palmitoyl-γGlu-AEEA-AEEA}-[dQ][X1]P[NMeR][Cha]SHKG[Pip][Nle][Aib][Phe(4-Cl)]-OH) | 0.994 nM |
